According to paper PMC4809294, “STP10 encodes a high-affinity monosaccharide transporter and is induced under low-glucose conditions in pollen tubes of Arabidopsis” (Journal of Experimental Botany, 2016):

What was measured:
[1] = molecular target: T1, STP10 (AtSTP10) (Arabidopsis thaliana, UniProt Q9LT15); assay: competition of […]glucose uptake in STP10-expressing yeast; also direct […]galactose uptake; format: cell-based; conditions: 10 µM [14C]glucose, 10-fold excess (100 µM) unlabelled competitor
T1 sequence (Q9LT15 1-514): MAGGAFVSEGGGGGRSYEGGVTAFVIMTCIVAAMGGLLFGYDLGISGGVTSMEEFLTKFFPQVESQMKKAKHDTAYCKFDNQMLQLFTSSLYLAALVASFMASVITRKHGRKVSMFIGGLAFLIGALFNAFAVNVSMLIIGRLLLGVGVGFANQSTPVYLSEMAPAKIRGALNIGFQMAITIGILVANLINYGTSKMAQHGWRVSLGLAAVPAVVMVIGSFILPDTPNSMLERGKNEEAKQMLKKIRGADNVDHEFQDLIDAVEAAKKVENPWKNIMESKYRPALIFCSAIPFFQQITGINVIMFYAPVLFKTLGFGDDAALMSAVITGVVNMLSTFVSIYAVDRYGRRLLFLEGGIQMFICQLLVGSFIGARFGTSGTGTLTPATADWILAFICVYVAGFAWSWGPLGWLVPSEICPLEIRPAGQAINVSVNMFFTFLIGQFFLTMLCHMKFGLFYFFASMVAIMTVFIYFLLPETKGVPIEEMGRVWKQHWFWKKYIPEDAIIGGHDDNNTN

[2] = molecular target: T1, STP10 (AtSTP10); assay: competition of […]glucose uptake in STP10-expressing yeast; format: cell-based; conditions: 10 µM [14C]glucose, 10-fold excess (100 µM) unlabelled competitor

SMILES	% remaining [14C]glucose uptake [1] [%]	% remaining [14C]glucose uptake [2] [%]
OC[C@H]1OC(O)[C@H](O)[C@@H](O)[C@H]1O (some centres unmarked) [galactose]	41	
OC[C@H]1OC(O)[C@@H](O)[C@@H](O)[C@@H]1O (some centres unmarked) [mannose]		64
